In patent publication US8778929B2, “Substituted heteroaryl inhibitors of B-RAF” (Boehringer Ingelheim International GmbH, priority 2008, dated 2014):

target: B-Raf (V600E)-kinase (Homo sapiens, UniProt P15056, V600E); assay: Kinase test B-Raf (V600E); type: biochemical; details: compound concentration 2 μM; 100% = no inhibition, 0% = total inhibition; read-out: % CTL (residual activity of the enzyme relative to DMSO control)
Outline: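 Kinase preincubated with compound (typically 2 μM to 0.119 nM or 0.017 nM, 5% DMSO) 1 h at RT, then reacted 60 min at RT with 250 μM ATP and biotinylated MEK1. Phospho-MEK (Ser217/221) captured on streptavidin, detected by europium time-resolved fluorescence; IC50 from dose-response curves.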

Sequence of B-Raf (V600E)-kinase (P15056 whole entry V600E): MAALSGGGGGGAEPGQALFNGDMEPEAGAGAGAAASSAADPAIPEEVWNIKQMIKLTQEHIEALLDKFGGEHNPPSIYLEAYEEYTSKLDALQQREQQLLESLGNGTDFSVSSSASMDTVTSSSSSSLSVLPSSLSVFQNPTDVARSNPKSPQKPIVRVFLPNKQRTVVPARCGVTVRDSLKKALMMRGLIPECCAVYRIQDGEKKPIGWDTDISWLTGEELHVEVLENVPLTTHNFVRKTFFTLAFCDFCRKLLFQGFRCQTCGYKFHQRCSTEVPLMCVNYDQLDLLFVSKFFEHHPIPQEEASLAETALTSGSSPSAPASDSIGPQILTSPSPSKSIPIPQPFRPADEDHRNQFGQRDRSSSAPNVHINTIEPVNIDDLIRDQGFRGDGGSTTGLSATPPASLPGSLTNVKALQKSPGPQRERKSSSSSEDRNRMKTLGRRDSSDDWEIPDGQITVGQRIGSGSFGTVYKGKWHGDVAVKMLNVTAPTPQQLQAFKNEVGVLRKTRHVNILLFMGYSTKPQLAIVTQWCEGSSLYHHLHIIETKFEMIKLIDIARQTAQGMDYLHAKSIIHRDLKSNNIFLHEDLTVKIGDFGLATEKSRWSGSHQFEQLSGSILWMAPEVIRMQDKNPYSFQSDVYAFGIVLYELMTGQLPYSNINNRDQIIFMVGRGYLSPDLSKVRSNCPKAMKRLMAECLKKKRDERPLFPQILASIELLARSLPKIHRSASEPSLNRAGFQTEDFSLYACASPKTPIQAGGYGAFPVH

remaining activity at 2 µM | SMILES
1.6% | Cc1ncc(C(=O)Nc2cc(CNC(C)C)cc(C(F)(F)F)c2)cc1-n1cc(-c2cnn(C)c2C)nn1 [Example I-107]
1.7% | Cc1ncc(C(=O)Nc2cc(CNCC(C)C)cc(C(F)(F)F)c2)cc1-n1cc(-c2cnn(C)c2C)nn1 [Example I-108]
1.8% | COCCN(C)Cc1cc(NC(=O)c2cnc(C)c(-n3cc(-c4cnn(C)c4C)nn3)c2)cc(C(F)(F)F)c1 [Example I-109]
1.3% | CNCc1cc(NC(=O)c2cnc(C)c(-n3cc(-c4cnn(C)c4C)nn3)c2)cc(C(F)(F)F)c1 [Example I-110]
1.8% | Cc1ncc(C(=O)Nc2cc(CNC3CC3)cc(C(F)(F)F)c2)cc1-n1cc(-c2cnn(C)c2C)nn1 [Example I-111]
2% | COCCN(C)Cc1cc(C(F)(F)F)cc(NC(=O)c2cnc(C)c(-n3cc(-c4cnn(C)c4C)nn3)c2)c1OC [Example I-112]
2.9% | COc1c(CO)cc(NC(=O)c2cnc(C)c(-n3cc(-c4cnn(C)c4C)nn3)c2)cc1C(F)(F)F [Example I-113]
1.9% | Cc1ncc(C(=O)Nc2cc(CO)c(Cl)c(C(F)(F)F)c2)cc1-n1cc(-c2cnn(C)c2C)nn1 [Example I-115]
3.1% | COc1c(CN2CCCC2)cc(NC(=O)c2cnc(C)c(-n3cc(-c4cnn(C)c4C)nn3)c2)cc1C(F)(F)F [Example I-116]
2.6% | Cc1ncc(C(=O)Nc2cc(C(F)(F)F)cc(N3CCCOCC3)c2C)cc1-n1cc(-c2cnn(C)c2C)nn1 [Example I-118]
1.8% | Cc1ncc(C(=O)Nc2cc(C(F)(F)F)cc(N(C)CCN(C)C)c2C)cc1-n1cc(-c2cnn(C)c2C)nn1 [Example I-119]
1.7% | CCN1CCN(c2cc(C(F)(F)F)cc(NC(=O)c3cnc(C)c(-n4cc(-c5cnn(C)c5C)nn4)c3)c2C)CC1 [Example I-120]
1.8% | Cc1ncc(C(=O)Nc2cc(C(F)(F)F)cc(N3CCOCC3)c2C)cc1-n1cc(-c2cnn(C)c2C)nn1 [Example I-122]
5.8% | Cc1ncc(C(=O)Nc2cc(CN3CCCC3)cc(C(F)(F)F)c2)cc1-n1cc(-c2cncs2)nn1 [Example I-123]
1.9% | Cc1ncc(C(=O)Nc2cc(OC(F)(F)F)cc(N3CCN(C)CC3)c2)cc1-n1cc(-c2cncnc2)nn1 [Example I-124]
1.2% | Cc1ncc(C(=O)Nc2cc(C3=CCN(C)CC3)c(C)c(C(F)(F)F)c2)cc1-n1cc(-c2cnn(C)c2C)nn1 [Example I-125]
5.7% | Cc1ncc(C(=O)Nc2cc(C3=CCNCC3)c(C)c(C(F)(F)F)c2)cc1-n1cc(-c2cnn(C)c2C)nn1 [Example I-126]
6.1% | Cc1ncc(C(=O)Nc2cc(CN3CCCC3)c(Cl)c(C(F)(F)F)c2)cc1-n1cc(-c2cncs2)nn1 [Example I-127]
5.3% | Cc1ncc(C(=O)Nc2cc(N3CCN(C)CC3)c(F)c(C(F)(F)F)c2)cc1-n1cc(-c2cncs2)nn1 [Example I-128]

remaining activity at 2 µM | SMILES
2.2% | Cc1ncc(C(=O)Nc2cc(CN3CCCC3)c(C)c(C(F)(F)F)c2)cc1-n1cc(-c2cnn(C)c2C)nn1 [Example I-130]
2.2% | Cc1ncc(C(=O)Nc2cc(CNCC(C)C)c(C)c(C(F)(F)F)c2)cc1-n1cc(-c2cnn(C)c2C)nn1 [Example I-131]
1% | Cc1ncc(C(=O)Nc2cc(CNC(C)C)c(C)c(C(F)(F)F)c2)cc1-n1cc(-c2cnn(C)c2C)nn1 [Example I-132]
2.6% | CCN1CCN(c2cncc(-c3cn(-c4cc(C(=O)Nc5cc(C(C)(C)C)on5)cnc4C)nn3)c2)CC1 [Example I-134]
2.6% | COCCN1CCN(c2cncc(-c3cn(-c4cc(C(=O)Nc5cc(C(C)(C)C)on5)cnc4C)nn3)c2)CC1 [Example I-135]
2.5% | Cc1ncc(C(=O)Nc2cc(C(C)(C)C)on2)cc1-n1cc(-c2cncc(N3CCC(N4CCOCC4)CC3)c2)nn1 [Example I-136]
2.5% | Cc1ncc(C(=O)Nc2cc(C(C)(C)C)on2)cc1-n1cc(-c2cncc(N3CCN(CC4CC4)CC3)c2)nn1 [Example I-137]
2.5% | Cc1ncc(C(=O)Nc2cc(C(C)(C)C)on2)cc1-n1cc(-c2cncc(NCCN(C)C)c2)nn1 [Example I-138]
2.5% | Cc1ncc(C(=O)Nc2cc(C(C)(C)C)on2)cc1-n1cc(-c2cncc(N3CCC(N4CCCCC4)CC3)c2)nn1 [Example I-139]
2.2% | Cc1ncc(C(=O)Nc2cc(C(C)(C)C)on2)cc1-n1cc(-c2cncc(N3CCN(C(C)C)CC3)c2)nn1 [Example I-140]
2.1% | Cc1ncc(C(=O)Nc2cc(C(C)(C)C)on2)cc1-n1cc(-c2cncc(N(C)CCN(C)C)c2)nn1 [Example I-141]
1.5% | Cc1ncc(C(=O)Nc2ccc(Cl)c(C(F)(F)F)c2)cc1-n1cc(-c2cncc(N3CCN(C)CC3)c2)nn1 [Example I-142]
2.2% | Cc1ncc(C(=O)Nc2cc(C(C)(C)C)on2)cc1-n1cc(-c2cncc(N3CC[C@@H](N(C)C)C3)c2)nn1 [Example I-143]
1.9% | Cc1ncc(C(=O)Nc2cc(C(F)(F)F)ccn2)cc1-n1cc(-c2cncc(N3CCN(C)CC3)c2)nn1 [Example I-144]
2.2% | Cc1ncc(C(=O)Nc2cc(C(C)(C)C)on2)cc1-n1cc(-c2cncc(N3CC[C@H](N(C)C)C3)c2)nn1 [Example I-145]
2% | COc1ccc(NC(=O)c2cnc(C)c(-n3cc(-c4cncc(N5CCN(C)CC5)c4)nn3)c2)cc1C(F)(F)F [Example I-146]
3.1% | Cc1ncc(C(=O)Nc2ccc(Cl)c(C(C)(C)C)c2)cc1-n1cc(-c2cncc(N3CCN(C)CC3)c2)nn1 [Example I-147]
4% | Cc1ncc(C(=O)Nc2nc(C(C)(C)C)cs2)cc1-n1cc(-c2cncc(N3CCN(C(C)C)CC3)c2)nn1 [Example I-148]
2.1% | Cc1ncc(C(=O)Nc2cn(C(C)C)nn2)cc1-n1cc(-c2cncc(N3CCN(C(C)C)CC3)c2)nn1 [Example I-149]

remaining activity at 2 µM | SMILES
4.1% | Cc1ncc(C(=O)Nc2cnn(C(C)C)c2)cc1-n1cc(-c2cncc(N3CCN(C(C)C)CC3)c2)nn1 [Example I-150]
4.5% | Cc1ncc(C(=O)Nc2cnn(C(C)C)c2C)cc1-n1cc(-c2cncc(N3CCN(C(C)C)CC3)c2)nn1 [Example I-151]
2.4% | Cc1ncc(C(=O)Nc2cc(C(F)(F)F)ccn2)cc1-n1cc(-c2cncc(N3CCN(C(C)C)CC3)c2)nn1 [Example I-152]
1.8% | Cc1ncc(C(=O)Nc2nnc(C(C)(C)C)s2)cc1-n1cc(-c2cncc(N3CCN(C(C)C)CC3)c2)nn1 [Example I-153]
2.9% | Cc1ncc(C(=O)Nc2cc(C(C)C)no2)cc1-n1cc(-c2cncc(N3CCN(C(C)C)CC3)c2)nn1 [Example I-154]
2.6% | Cc1ncc(C(=O)Nc2cc(C(C)(C)C)ncn2)cc1-n1cc(-c2cncc(N3CCN(C(C)C)CC3)c2)nn1 [Example I-155]
9.9% | CCCN1CCN(c2cncc(-c3cn(-c4cc(C(=O)Nc5cc(C(C)(C)C)on5)cnc4C)nn3)c2)CC1 [Example I-164]
8.9% | Cc1ncc(C(=O)Nc2cc(C(C)(C)C)on2)cc1-n1cc(-c2cncc(N3CCN(C4CC4)CC3)c2)nn1 [Example I-165]
7.9% | Cc1ncc(C(=O)Nc2cc(C(C)(C)C)on2)cc1-n1cc(-c2cncc(N3CCN(C4CCCC4)CC3)c2)nn1 [Example I-166]
7.9% | Cc1ncc(C(=O)Nc2cc(C(C)(C)C)on2)cc1-n1cc(-c2cncc(N3CCN(C(C)(C)C)CC3)c2)nn1 [Example I-167]
9.8% | Cc1ncc(C(=O)Nc2cc(C(C)(C)C)on2)cc1-n1cc(-c2cncc(N3CCN(CCCO)CC3)c2)nn1 [Example I-168]
8.4% | COCCCN1CCN(c2cncc(-c3cn(-c4cc(C(=O)Nc5cc(C(C)(C)C)on5)cnc4C)nn3)c2)CC1 [Example I-169]
7.5% | CCOCCN1CCN(c2cncc(-c3cn(-c4cc(C(=O)Nc5cc(C(C)(C)C)on5)cnc4C)nn3)c2)CC1 [Example I-170]
7.7% | Cc1ncc(C(=O)Nc2cc(C(C)(C)C)on2)cc1-n1cc(-c2cncc(N3CCN(CC(C)C)CC3)c2)nn1 [Example I-171]
8% | CCCCN1CCN(c2cncc(-c3cn(-c4cc(C(=O)Nc5cc(C(C)(C)C)on5)cnc4C)nn3)c2)CC1 [Example I-172]
2.4% | Cc1ncc(C(=O)Nc2cc(C(C)(C)C)on2)cc1-n1cc(-c2cncc(N3CCN(CC4CCCCC4)CC3)c2)nn1 [Example I-173]
8.1% | C=CCN1CCN(c2cncc(-c3cn(-c4cc(C(=O)Nc5cc(C(C)(C)C)on5)cnc4C)nn3)c2)CC1 [Example I-174]
8.1% | Cc1ncc(C(=O)Nc2cc(C(C)(C)C)on2)cc1-n1cc(-c2cncc(N3CCN(CCC#N)CC3)c2)nn1 [Example I-175]
6.7% | Cc1ncc(C(=O)Nc2cc(C(C)(C)C)on2)cc1-n1cc(-c2cncc(N3CCN(CC(=O)N(C)C)CC3)c2)nn1 [Example I-176]

same assay, conditions: measurement at 1.02 μM (**); 100% = no inhibition, 0% = total inhibition; read-out: % CTL (residual activity of the enzyme relative to DMSO control)

remaining activity at 1.02 µM | SMILES
15.6% | Cc1ncc(C(=O)Nc2cc(C(F)(F)F)cc(N3CCCCC3)c2C)cc1-n1cc(-c2cnn(C)c2C)nn1 [Example I-114]

same assay, conditions: measurement at 1.43 μM (***); 100% = no inhibition, 0% = total inhibition; read-out: % CTL (residual activity of the enzyme relative to DMSO control)

remaining activity at 1.43 µM | SMILES
2.3% | Cc1ncc(C(=O)Nc2cc(C(F)(F)F)cc(N3CCCC3)c2C)cc1-n1cc(-c2cnn(C)c2C)nn1 [Example I-121]
